Read-outs that look alike come from different tables or passages of the source.
Assays:
P. aeruginosa = assay: Checkerboard assay (antibiotic + adjuvant combination MIC); format: cell-based, Pseudomonas aeruginosa; conditions: Pseudomonas aeruginosa, read-out: MIC of Novobiocin Alone
A. baumannii ATCC 17978 = assay: microbe, parasite or virus in culture; format: cell-based, Acinetobacter baumannii
Procedure: Development of Resistance Study. […] Tobramycin and colistin were included as controls. At 24-hour intervals, the cultures were assessed for growth. […] This serial passaging was repeated for 8 days.

E. coli = assay: Checkerboard assay (antibiotic + adjuvant combination MIC); format: cell-based, Escherichia coli; conditions: Escherichia coli, read-out: MIC of Novobiocin Alone
Procedure: (§1) Antimicrobial Susceptibility Assay. The in vitro antimicrobial activity of all compounds/antibiotics against a panel of bacteria was evaluated by microbroth dilution method in accordance with the Clinical and Laboratory Standards Institute (CLSI) guidelines (using ATCC strains as quality control strains) (54). Overnight grown bacterial cultures were diluted in saline to achieve a 0.5 McFarland turbidity, followed by 1:50 dilution in Mueller-Hinton broth (MHB) for inoculation to a final concentration of approximately 5×10^5 CFU/mL. […] The lowest concentration that prevented the visible growth of bacteria was defined as the MIC for each antimicrobial agent. The broth with or without bacterial cells was used as positive or negative control, respectively.
(§2) Checkerboard Assay. Combination studies with different antibiotics were performed in 96-well plates as previously described (19). Briefly, the antibiotic of interest was serially diluted in MHB along the abscissa while the adjuvant (tobramycin homodimer) was serially diluted in MHB along the ordinate. This creates a 10×7 matrices wherein each well consists of a combination of different antibiotic and adjuvant concentrations. Overnight grown bacterial cultures were diluted in saline to achieve a 0.5 McFarland turbidity, followed by 1:50 dilution in Mueller-Hinton broth (MHB) for inoculation to a final concentration of approximately 5×10^5 CFU/mL. […] MIC was recorded as wells with the lowest concentration of drugs with no bacterial growth. The fractional inhibitory concentration (FIC) for each antibiotic was calculated by dividing the MIC of the antibiotic in the presence of adjuvant by the MIC of the antibiotic alone. Similarly, the FIC of adjuvant was calculated by dividing the MIC of the adjuvant in the presence of antibiotic by the MIC of the adjuvant alone. FIC index is the sum of both FICs. FIC indices of ≤0.5 were deemed synergistic; >0.5-4, no interaction; and >4, antagonistic.

P. aeruginosa PAO1 = assay: Time-kill assay; format: cell-based, Pseudomonas aeruginosa; conditions: LB media, novobiocin 32 μg/ml, compound 1 7.1 μM, 24 h
Procedure: Time-kill Assay. […] At specific time intervals (0, 1, 3, 6, 9, and 24 h), 100 μl was taken from each sample, serially diluted in sterile PBS, plated on LB agar plates, and incubated at 37° C. in a humid 5% CO2-enriched atmosphere. Bacterial colonies were counted after 20 h of incubation.

E. cloacae = assay: Checkerboard assay (antibiotic + adjuvant combination MIC); format: cell-based, Enterobacter cloacae; conditions: Enterobacter cloacae, read-out: MIC of Novobiocin Alone
Procedure: as §1, §2

MDR A. baumannii = assay: Galleria mellonella in vivo larvae-infection model; conditions: single dose 100 mg/kg, agent alone; after 24 h
Procedure: Galleria mellonella In vivo Larvae-Infection Model. In vivo synergistic effects were determined using Galleria mellonella infection model, as previously described (49). Briefly, larvae were purchased from The Worm Lady Live Feeder (ON, Canada), stored in their natural habitat at 16° C., and used within 10 days of delivery. The larvae (average weight of 250 mg) were used for tolerability and efficacy studies. Tolerability study was performed by injecting a 10 μL aliquot of antimicrobial agents only at concentrations equivalent to 100 mg/kg or 200 mg/kg. The larvae (ten in each group) were incubated at 37° C. and monitored for 96 h. For efficacy studies, the virulence and bacterial load required to kill 100% of the larvae within 24 h (with no treatment) was first determined, which is approximately 10 CFU. Overnight grown culture of respective MDR A. baumannii isolate was standardized to 0.5 McFarland standard and diluted in PBS to a final concentration of 10^3 CFU/mL. A 10 μL aliquot of this solution (˜10 CFU) was injected into each larva and incubated for 3 h at 37° C. […] Larvae treated with 10 μL of PBS or high concentrations of test antibiotics served as negative and positive control, respectively. The larvae were incubated at 37° C. in Petri dishes lined with filter paper and scored for survivability every 6 h for up to 36 h. […]

K. pneumoniae = assay: Checkerboard assay (antibiotic + adjuvant combination MIC); format: cell-based, Klebsiella pneumoniae; conditions: for MIC: Klebsiella pneumoniae, read-out: MIC of Novobiocin Alone
Procedure: as §1, §2

MRSE 61589 = assay: MIC and combination against Gram-positive bacteria; format: cell-based; conditions: Staphylococcus epidermidis
Procedure: (§3) Next, we investigated whether tobramycin by itself would potentiate novobiocin against Gram-negative bacteria.
as §1

MRSA ATCC 33592 = assay: MIC and combination against Gram-positive bacteria; format: cell-based; conditions: Staphylococcus aureus
Procedure: as §3, §1

E. faecium ATCC 27270 = assay: MIC and combination against Gram-positive bacteria; format: cell-based; conditions: Enterococcus faecium, ATCC27270
Procedure: as §3, §1

A. baumannii = assay: Checkerboard assay (antibiotic + adjuvant combination MIC); format: cell-based, Acinetobacter baumannii; conditions: Acinetobacter baumannii, read-out: MIC of Novobiocin Alone
Procedure: as §1, §2

**Q.** For `CO[C@@H]1[C@@H](OC(N)=O)[C@@H](O)[C@H](Oc2ccc3c(O)c(NC(=O)c4ccc(O)c(CC=C(C)C)c4)c(=O)oc3c2C)OC1(C)C` [Novobiocin], which MIC (P. aeruginosa; P. aeruginosa 259-96918) is on record?
**A.** 512 µg/mL

**Q.** And the MIC (P. aeruginosa; P. aeruginosa 260-97103)?
**A.** 256 µg/mL

**Q.** What about the MIC (P. aeruginosa; P. aeruginosa 262-101856) of the same compound?
**A.** 512 µg/mL

**Q.** And the MIC (P. aeruginosa; P. aeruginosa 264-104354)?
**A.** 512 µg/mL

**Q.** And the MIC (P. aeruginosa; P. aeruginosa 91433)?
**A.** 16 µg/mL

**Q.** And the MIC (P. aeruginosa; P. aeruginosa 100036)?
**A.** 1020 µg/mL

**Q.** What about the MIC (P. aeruginosa; P. aeruginosa 101243) of the same compound?
**A.** 128 µg/mL

**Q.** What about the MIC (P. aeruginosa; P. aeruginosa 101885) of the same compound?
**A.** 1020 µg/mL

**Q.** And the MIC (P. aeruginosa; P. aeruginosa 114228)?
**A.** 512 µg/mL

**Q.** And the MIC (P. aeruginosa; PA 91433)?
**A.** 16 µg/mL

**Q.** What about the MIC (P. aeruginosa; PA 101243) of the same compound?
**A.** 128 µg/mL

**Q.** What about the MIC (P. aeruginosa; PA 114228) of the same compound?
**A.** 512 µg/mL

**Q.** And the MIC (P. aeruginosa; PAO1, P. aeruginosa PAO1)?
**A.** 512 µg/mL

**Q.** What about the MIC (P. aeruginosa; PAO1, PAO1 (wild-type)) of the same compound?
**A.** 512 µg/mL

**Q.** And the MIC (P. aeruginosa; PAO1, PAO1)?
**A.** 512 µg/mL

**Q.** What about the MIC (P. aeruginosa; PAO200 (efflux-deficient)) of the same compound?
**A.** 32 µg/mL

**Q.** And the MIC (P. aeruginosa; PAO750 (efflux-deficient))?
**A.** 32 µg/mL

**Q.** And the “fold change in MIC” value (A. baumannii ATCC 17978; after 3 days of serial passaging)?
**A.** 64 fold

**Q.** What about the “fold change in MIC” value (A. baumannii ATCC 17978; after 5 days of serial passaging) of the same compound?
**A.** 256 fold

**Q.** What about the MIC (E. coli; ATCC25922, E. coli ATCC 25922) of the same compound?
**A.** 64 µg/mL

**Q.** And the MIC (E. coli; E. coli 94393)?
**A.** 128 µg/mL

**Q.** What about the MIC (E. coli; E. coli 94474) of the same compound?
**A.** 256 µg/mL

**Q.** And the MIC (E. coli; E. coli 107115)?
**A.** 128 µg/mL

**Q.** And the time-kill outcome (P. aeruginosa PAO1)?
**A.** bacterial growth identical to their respective controls

**Q.** And the MIC (E. cloacae; E. cloacae 117029)?
**A.** 1020 µg/mL

**Q.** And the MIC (E. cloacae; E. cloacae 118568)?
**A.** 1020 µg/mL

**Q.** What about the MIC (E. cloacae; E. cloacae 121187) of the same compound?
**A.** 64 µg/mL

**Q.** And the MIC (E. cloacae; EC 118568)?
**A.** 1020 µg/mL

**Q.** And the “mortality of infected larvae” value (MDR A. baumannii)?
**A.** 100%

**Q.** And the “MIC of Novobiocin Alone” value (K. pneumoniae)?
**A.** 256 µg/mL

**Q.** And the MIC (K. pneumoniae; K. pneumoniae 113250)?
**A.** 512 µg/mL

**Q.** What about the MIC (K. pneumoniae; K. pneumoniae 113254) of the same compound?
**A.** 256 µg/mL

**Q.** And the MIC (K. pneumoniae; K. pneumoniae 116381)?
**A.** 1020 µg/mL

**Q.** And the MIC (MRSE 61589)?
**A.** 0.0625 µg/mL

**Q.** And the MIC (MRSA ATCC 33592)?
**A.** 0.125 µg/mL

**Q.** What about the MIC (E. faecium ATCC 27270) of the same compound?
**A.** 2 µg/mL

**Q.** And the MIC (A. baumannii; A. baumannii 027)?
**A.** 8 µg/mL

**Q.** What about the MIC (A. baumannii; A. baumannii 031) of the same compound?
**A.** 8 µg/mL

**Q.** What about the MIC (A. baumannii; A. baumannii 92247) of the same compound?
**A.** 4 µg/mL

**Q.** What about the MIC (A. baumannii; A. baumannii LAC-4) of the same compound?
**A.** 8 µg/mL

**Q.** And the MIC (A. baumannii; AB 92247)?
**A.** 4 µg/mL

**Q.** And the MIC (A. baumannii; ATCC17978, A. baumannii ATCC 17978)?
**A.** 16 µg/mL

**Q.** What about the MIC (A. baumannii; A. baumannii 110193) of the same compound?
**A.** 256 µg/mL

From US20220249441A1, “Homodimeric Tobramycin Adjuvant Repurposes Novobiocin as an Effective Antibacterial Agent Against Gram-Negative Bacteria” (priority 2019, published 2022)
